Measurements: US9339486B2, “Heterocyclic modulators of cannabinoid receptors” (THE CLEVELAND CLINIC FOUNDATION, priority 2008, dated 2016)

Assays:
[1] = tested on: spinal nerve ligation neuropathic pain model; experiment: Tactile allodynia in SNL neuropathic pain model (von Frey); format: in vivo, rat; settings: for effect of antagonist alone on paw withdrawal threshold: 5 mg/kg i.p. alone
Experimental: Adult, male Sprague Dawley (Harlan Sprague Dawley, Indianapolis, Ind.) rats weighing 120-150 gm were used in experimental procedures approved by the Animal Care and Use Committee of the M. D. Anderson Cancer Center, University of Texas. Animals were housed three per cage on a 12/12 hr light/dark cycle with water and food pellets available ad libitum.
All surgical procedures were performed under deep isoflurane anesthesia in 100% 02. The spinal nerve ligation (SNL) was performed as described previously. Kim, S. H., et al., An Experimental Model for Peripheral Neuropathy Produced by Segmental Spinal Nerve Ligation in the Rat, Pain, 1992, 50:355-63. Briefly, a midline incision above the lumbar spine exposed the left L6 transverse process. The process was then removed, the left L5 and L6 spinal nerves were isolated, and both nerves were tightly ligated with 6-0 silk. Prophylactic antibiotic (norfloxacin 5 mg/kg subcutaneously) and analgesic (buprenorphine, 0.2-0.5 mg/kg, or morphine, 2.5 mg/kg, given subcutaneously) were administered once daily for 3 days. All the experiments were conducted 10-14 days after spinal nerve ligation.
(§1) Rats were placed in a compartment with a wire mesh bottom and allowed to acclimate for a minimum of 30 min before testing. Mechanical sensitivity was assessed using a series of Von Frey filaments with logarithmic incremental stiffness (0.41, 0.70, 1.20, 2.00, 3.63, 5.50, 8.50, and 15.1 g) (Stoelting, Wood Dale, Ill.) as previously described, and 50% probability withdrawal thresholds were calculated with the up-down method. Chaplan, S. R., et al., Quantitative Assessment of Tactile Allodynia in the Rat Paw, J. Neurosci. Methods, 1994, 53:55-63; Dixon, W., The Up-and-Down Method for Small Samples, J. Am. Stat. Assoc., 1965, 60:967-78. In brief, beginning with the 2.0-g probe, filaments were applied to the plantar surface of a hind paw for 6-8 s, in an ascending or descending order after a negative or positive withdrawal response, respectively. Six consecutive responses from the first change in the response were used to calculate the withdrawal threshold (in grams). In cases where response thresholds fell outside the range of detection, 15.00 and 0.25 g were, respectively, assigned for continuous negative or positive responses to the limit of stimuli. The percent maximal possible effect (% MPE) was calculated as ([postdrug threshold−baseline threshold]/[cutoff threshold (15 g)−baseline threshold])×100.
(§2) Statistical analyses were carried out using BMDP 2007 (Statistical Solutions, Saugus, Mass., USA) and Graph Pad Prism (version 4.03; Graph Pad Software Inc., San Diego, Calif., USA). Data were analyzed using one-way ANOVA, repeated measures ANOVA, or t-test where appropriate. If ANOVA was significant, Tukey-Kramer post hoc analysis was used for multiple group comparison. Area under the curve (AUC) was calculated using the trapezoidal rule. The results are presented as mean±s.e. mean and were considered significant at P<0.05. Analyses of the dose-response curves and statistics were obtained using the pharmacologic software programs of Tallarida and Murray and included calculation of the ED50 values and their 95% confidence intervals (CI). Tallarida, R. J., et al., Manual of Pharmacologic Calculations With Computer Programs, Second ed. New York: Springer-Verlag, 1987.

[2] = tested on: paclitaxel-induced neuropathic pain model; experiment: animal or person; format: in vivo, rat
Experimental: Groups of rats received daily i.p. injections of either vehicle or 1.0 mg/kg paclitaxel daily for four consecutive days for a final cumulative dose of 4 mg/kg; using an injection volume of 1 ml/kg. Polomano, R. C., et al., A Painful Peripheral Neuropathy in the Rat Produced by the Chemotherapeutic Drug, Paclitaxel, Pain, 2001, 94:293-304. The vehicle used in our experiments was the same vehicle used clinically for paclitaxel injections and is composed of a mixture of 10% saline and Cremophor EL® and […]. Baseline responses to mechanical stimulation of the hindpaw (see below) were established on day zero and continued daily until the development of neuropathy was confirmed.
as §1
To determine sensitivity to noxious heat, rats were placed in plexiglass enclosures on a transparent glass surface maintained at 30° C. and allowed to acclimate for 30 min. A thermal testing apparatus, consisting of a heat-emitting projector lamp and an electronic timer, was used. The device was activated after the lamp is placed directly beneath the planter surface of the hindpaw. The paw withdrawal latency in response to the radiant heat was recorded by a digital timer. A cutoff of 30 s was used to prevent potential tissue damage. After the baseline was measured, three groups of naïve rats (n=10) received 1.0, 3.0, or 10 mg/kg of the compound of Example 3 i.p. Response latencies were determined twice for each rat before drug injection and at 5, 10, 15, 30, 45, 60, 90 and 120 min after IP injection. The percent maximal possible effect (% MPE) was calculated as ([postdrug latency−baseline latency]/[cutoff time (30 s)−baseline latency])×100.
as §2

CB1 [3] = molecular target: T1, CB1 (Homo sapiens (Human), UniProt P21554); experiment: CB1 Binding Assay ([3H]CP 55940, cell membrane homogenates); settings: for % Inhibition of Control Specific Binding / % of Control Specific Binding Mean / % of Control Specific Binding 1st / % of Control Specific Binding 2nd: CB1, test concentration 1.0E−05 (MD); for % of Control Specific Binding 1st: first replicate; for % of Control Specific Binding 2nd: second replicate; for % Inhibition of Control Specific Binding CB1: as repeated in Table 3
T1 sequence (P21554 whole entry): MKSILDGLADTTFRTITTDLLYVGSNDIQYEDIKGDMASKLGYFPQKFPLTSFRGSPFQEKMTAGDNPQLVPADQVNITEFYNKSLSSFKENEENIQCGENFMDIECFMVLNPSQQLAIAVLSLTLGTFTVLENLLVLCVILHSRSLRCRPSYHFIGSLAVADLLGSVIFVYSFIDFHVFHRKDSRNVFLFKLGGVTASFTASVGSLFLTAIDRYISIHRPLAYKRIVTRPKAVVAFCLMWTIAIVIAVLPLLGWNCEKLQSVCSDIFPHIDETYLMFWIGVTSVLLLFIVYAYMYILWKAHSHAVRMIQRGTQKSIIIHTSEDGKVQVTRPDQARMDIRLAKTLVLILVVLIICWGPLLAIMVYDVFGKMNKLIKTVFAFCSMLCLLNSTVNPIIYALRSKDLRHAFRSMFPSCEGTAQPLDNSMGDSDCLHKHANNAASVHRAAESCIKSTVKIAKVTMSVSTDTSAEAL
Experimental: (§3) After being incubated, the samples were filtered rapidly under vacuum through glass fiber filters (GF/B; Packard) presoaked with 0.3% PEI and rinsed several times with ice-cold buffer containing 50 mM Tris HCl (pH 7.4) and 0.5% BSA using a 96-sample cell harvester (Unifilter; Packard). The filters were dried then counted for radioactivity in a scintillation counter (Topcount; Packard) using a scintillation cocktail (Microscint 0; Packard). The results were expressed as a percentage of the inhibition of the control radioligand-specific binding. The reference standard compounds were tested in each experiment at several concentrations to obtain a competition curve from which its IC50 was calculated.

CB2 [4] = molecular target: T2, CB2 (Homo sapiens (Human), UniProt P34972); experiment: CB2 Binding Assay ([3H]WIN 55212-2, cell membrane homogenates); settings: for % Inhibition of Control Specific Binding / % of Control Specific Binding Mean / % of Control Specific Binding 1st / % of Control Specific Binding 2nd: CB2, test concentration 1.0E−05 (MD); for % of Control Specific Binding 1st: first replicate; for % of Control Specific Binding 2nd: second replicate; for % Inhibition of Control Specific Binding CB2: as repeated in Table 4
T2 sequence (P34972 whole entry): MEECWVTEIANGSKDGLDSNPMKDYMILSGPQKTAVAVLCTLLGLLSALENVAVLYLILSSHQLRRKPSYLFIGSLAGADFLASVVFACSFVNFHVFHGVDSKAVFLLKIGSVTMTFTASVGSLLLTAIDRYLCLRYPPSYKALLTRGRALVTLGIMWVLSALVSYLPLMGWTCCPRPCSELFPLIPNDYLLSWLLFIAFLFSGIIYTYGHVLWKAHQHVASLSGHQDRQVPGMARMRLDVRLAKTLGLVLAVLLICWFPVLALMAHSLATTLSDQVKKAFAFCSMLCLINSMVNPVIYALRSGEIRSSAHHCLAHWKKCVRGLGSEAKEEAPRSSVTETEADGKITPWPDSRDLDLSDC
Experimental: as §3, with “Cell membrane homogenates (15 μg protein) were incubated for 120 min at 37° C. with 0.8 nM [3H]WIN 55212-2 (the reference standard [Munro, 1993 #1321]) in the absence or presence of the test compound in a buffer containing 50 mM HEPES/Tris HCL (pH 7.4), 5 mM MgCl2, 2.5 mM EGTA, and 0.1% BSA. Nonspecific binding was determined in the presence of 10 μM WIN 55212-2. After” for “After”

CB1 [5] = molecular target: T1, CB1; experiment: CB1/CB2 Functional Assay (GTPγ[35S]), CB1 membranes; format: biochemical; settings: for % Activation Average: reference agonist CP55,940
Experimental: (§4) A dose response curve was generated at eight concentrations in duplicate on CB1 and CB2 in light of reference agonists. The reference agonists for cannabinoid receptors was CP55,940. See FIGS. 1A, 1B, 2A, 2B, 3A and 3B.
(§5) Membranes (CB1, ES-110-MG or CB2, ES-111-MG) were mixed with GDP (volume:volume) and incubated for at least 15 min on ice. In parallel, GTPγ[^35S] were mixed with the beads (volume:volume) just before starting the reaction. The following reagents were successively added in the wells of an Optiplate: 50 μl of ligand, 20 μl of the membranes:GDP mix, 10 μl of assay buffer for agonist testing and 20 μl of the GTPγ[^35S]: beads mix. The plates were covered with a topseal, shaken on an orbital shaker for 2 min, and then incubated between 30 to 60 min. at room temperature. Then the plates were centrifuged for 10 min at 2000 rpm, incubated at room temperature between 1 to 4 hours and counted for 1 min with a PerkinElmer TopCount reader.

CB2 [6] = molecular target: T2, CB2; experiment: CB1/CB2 Functional Assay (GTPγ[35S]), CB2 membranes; format: biochemical; settings: for EC50: read-out: EC50 (nM) for GTP Binding; for % Activation Average: reference agonist CP55,940
Experimental: as §4, §5

SMILES	% Inhibition of Control Specific Binding (CB1 [3]) [%]	% of Control Specific Binding Mean (CB1 [3]) [%]	% of Control Specific Binding 1st (CB1 [3]) [%]	% of Control Specific Binding 2nd (CB1 [3]) [%]	% Inhibition of Control Specific Binding (CB2 [4]) [%]	% of Control Specific Binding Mean (CB2 [4]) [%]	% of Control Specific Binding 1st (CB2 [4]) [%]	% of Control Specific Binding 2nd (CB2 [4]) [%]	also measured
Cc1c(C(=O)NN2CCCCC2)nn(-c2ccc(Cl)cc2Cl)c1-c1ccc(I)cc1 [AM251, reference compound]	–	–	–	–	–	–	–	–	effect of antagonist alone on paw withdrawal threshold [1]: had no effect
COc1ccc(C(=O)c2c(C)n(CCN3CCOCC3)c3cc(I)ccc23)cc1 [AM630, reference compound]	–	–	–	–	–	–	–	–	effect of antagonist alone on paw withdrawal threshold [1]: had no effect
CN1CCCCC1Cn1cc(C(=O)c2cc([N+](=O)[O-])ccc2I)c2ccccc21 (stereo not shown) [AM1241, reference compound]	–	–	–	–	–	–	–	–	antiallodynic effect versus vehicle ([1]; 15 mg/kg i.p.): produced antiallodynic effects; effect of naloxone pretreatment on analgesic effects ([1]; AM1241 15 mg/kg i.p.): significantly reversed; effect on reversing thermal hyperalgesia compared with 15 mg/kg compound of Example 3 i.p. ([2]; 5 mg/kg i.p.): significantly less than
CC1(Cc2ccccc2)COc2cc(C(=O)Nc3ccccc3I)ccc21 (stereo not shown) [Example 1, 3-Benzyl-3-methyl-2,3-dihydro-benzofuran-6-carboxylic acid (2-iodo-phenyl)-amide]	14	85.5	85.7	85.3	23	76.6	78.3	74.8	–
CC1(Cc2ccccc2)COc2cc(C(=O)NC3CCCCC3)ccc21 (stereo not shown) [Example 2, 3-Benzyl-3-methyl-2,3-dihydro-benzofuran-6-carboxylic acid cyclohexylamide]	68	31.8	29.9	33.8	85	14.9	21.3	8.6	% Inhibition of Control Specific Binding CB1 (CB1 [3]): 68%; % Inhibition of Control Specific Binding CB2 (CB2 [4]): 85%; Compound Function (CB1 [5]): Inverse; % Activation Average (CB1 [5]): −35.79%; Compound Function (CB2 [6]): Agonist; EC50 (CB2 [6]): 479 nM; % Activation Average (CB2 [6]): 52.94%
CC1(Cc2ccccc2)COc2ccc(C(=O)Nc3ccccc3I)cc21 (stereo not shown) [Example 4, 3-Benzyl-3-methyl-2,3-dihydro-benzofuran-5-carboxylic acid-o-iodoanilide]	9	90.5	85.9	95.1	15	84.7	83.9	85.5	–
CC1(Cc2ccccc2)COc2ccc(C(=O)NC3CCCCC3)cc21 (stereo not shown) [Example 5, 3-benzyl-3-methyl-2,3-dihydrobenzofuran-5-carboxylic acid-cyclohexylamide]	43	57.2	53.5	60.8	72	27.5	29.9	25.1	% Inhibition of Control Specific Binding CB1 (CB1 [3]): 43%; % Inhibition of Control Specific Binding CB2 (CB2 [4]): 72%; Compound Function (CB1 [5]): Inverse; % Activation Average (CB1 [5]): −36.02%; Compound Function (CB2 [6]): Agonist; EC50 (CB2 [6]): 409 nM; % Activation Average (CB2 [6]): 55.71%
CC1(Cc2ccccc2)COc2ccc(C(=O)N3CCCCC3)cc21 (stereo not shown) [Example 6, 3-benzyl-3-methyl-2,3-dihydrobenzofuran-5-carboxylic acid-piperidine amide]	–	–	–	–	31	69.4	71.6	67.3	–
C=CCN1CC[C@]23c4c5ccc(O)c4O[C@H]2C(=O)CC[C@@]3(O)[C@H]1C5 [naloxone, reference compound]	–	–	–	–	–	–	–	–	effect per se on paw withdrawal threshold ([1]; 10 mg/kg i.p.): did not affect paw withdrawal threshold
CC(=O)O[C@H]1C(=O)[C@@]2(C)[C@H]([C@H](OC(=O)c3ccccc3)[C@]3(O)C[C@H](OC(=O)[C@H](O)[C@@H](NC(=O)c4ccccc4)c4ccccc4)C(C)=C1C3(C)C)[C@]1(OC(C)=O)CO[C@@H]1C[C@@H]2O [paclitaxel, reference compound]	–	–	–	–	–	–	–	–	paw withdrawal threshold to mechanical stimulation, left paw ([2]; rat, in vivo): 2.8 ± 0.15 g; paw withdrawal threshold to mechanical stimulation, right paw ([2]; rat, in vivo): 2.9 ± 0.19 g
